# Source: ChEMBL document CHEMBL3885881, “DrugMatrix”
# Species: Rattus norvegicus
# Assay: DrugMatrix - Regimen: Daily Repeat
# Type: toxicity, organism-based, Sprague-Dawley
# Parameters: regimen Daily Repeat, gender Male, age 6-8 weeks
# Conditions: in vivo, po, route oral GAVAGE, vehicle 100 % WATER; for ABSOLUTE BASOPHIL / ABSOLUTE EOSINOPHIL / ABSOLUTE LYMPHOCYTE / ABSOLUTE MONOCYTE / ABSOLUTE SEGMENTED NEUTROPHIL / BASOPHIL / EOSINOPHIL / ERYTHROCYTE COUNT / HEMATOCRIT / HEMOGLOBIN / LEUKOCYTE COUNT / LYMPHOCYTE / MEAN CORPUSCULAR HEMOGLOBIN / MEAN CORPUSCULAR HEMOGLOBIN CONCENTRATION / MEAN CORPUSCULAR VOLUME / MONOCYTE / NEUTROPHIL / NUCLEATED RED BLOOD CELLS / PLATELET COUNT: tissue Blood; for ALANINE AMINOTRANSFERASE / ALBUMIN / ALKALINE PHOSPHATASE / ASPARTATE AMINOTRANSFERASE / BLOOD UREA NITROGEN / CARBON DIOXIDE / CHLORIDE / CHOLESTEROL / CREATINE PHOSPHOKINASE / CREATININE / GLUCOSE / LACTATE DEHYDROGENASE / LIPASE / PHOSPHORUS / POTASSIUM / SODIUM / TOTAL BILIRUBIN / TOTAL PROTEIN / URIC ACID: tissue Plasma
# [1] = 0 mg/kg, 72 h, dose level Control, time 3 day
# [2] = 0 mg/kg, 120 h, dose level Control, time 5 day
# [3] = 200 mg/kg, 72 h, dose level Low, time 3 day
smiles,measurement,setting,value
O=C(O)c1cccnc1 [NIACIN],ABSOLUTE BASOPHIL,[1],0 CELLS/uL
same,ABSOLUTE EOSINOPHIL,[1],0 CELLS/uL
same,ABSOLUTE LYMPHOCYTE,[1],10386.33 CELLS/uL
same,ABSOLUTE MONOCYTE,[1],88.5 CELLS/uL
same,ABSOLUTE SEGMENTED NEUTROPHIL,[1],1008.5 CELLS/uL
same,BASOPHIL,[1],0%
same,EOSINOPHIL,[1],0%
same,ERYTHROCYTE COUNT,[1],5.16 x10E6/uL
same,HEMATOCRIT,[1],32.43%
same,HEMOGLOBIN,[1],12.98 G/DL
same,LEUKOCYTE COUNT,[1],11.48 x10E3/uL
same,LYMPHOCYTE,[1],92.33%
same,MEAN CORPUSCULAR HEMOGLOBIN,[1],25.23 pg
same,MEAN CORPUSCULAR HEMOGLOBIN CONCENTRATION,[1],40.08 G/DL
same,MEAN CORPUSCULAR VOLUME,[1],62.95 fL
same,MONOCYTE,[1],0.67%
same,NEUTROPHIL,[1],7%
same,NUCLEATED RED BLOOD CELLS,[1],0 /100WBC
same,PLATELET COUNT,[1],1016.67 x10E3/uL
same,ALANINE AMINOTRANSFERASE,[1],62.17 u/L
same,ALBUMIN,[1],3.95 G/DL
same,ALKALINE PHOSPHATASE,[1],363.5 u/L
same,ASPARTATE AMINOTRANSFERASE,[1],118 u/L
same,BLOOD UREA NITROGEN,[1],14.5 mg/dL
same,CARBON DIOXIDE,[1],22.83 mmol/L
same,CHLORIDE,[1],100.67 MEQ/L
same,CHOLESTEROL,[1],66 mg/dL
same,CREATINE PHOSPHOKINASE,[1],1308.83 u/L
same,CREATININE,[1],0.22 mg/dL
same,GLUCOSE,[1],187.5 mg/dL
same,LACTATE DEHYDROGENASE,[1],380.17 u/L
same,LIPASE,[1],16.17 u/L
same,PHOSPHORUS,[1],14.27 mg/dL
same,POTASSIUM,[1],6.8 MEQ/L
same,SODIUM,[1],142.53 MEQ/L
same,TOTAL BILIRUBIN,[1],0.2 mg/dL
same,TOTAL PROTEIN,[1],5.68 G/DL
same,URIC ACID,[1],2.87 mg/dL
same,ABSOLUTE BASOPHIL,[2],0 CELLS/uL
same,ABSOLUTE EOSINOPHIL,[2],80 CELLS/uL
same,ABSOLUTE LYMPHOCYTE,[2],13301.33 CELLS/uL
same,ABSOLUTE MONOCYTE,[2],180.83 CELLS/uL
same,ABSOLUTE SEGMENTED NEUTROPHIL,[2],1187.83 CELLS/uL
same,BASOPHIL,[2],0%
same,EOSINOPHIL,[2],0.5%
same,ERYTHROCYTE COUNT,[2],5.54 x10E6/uL
same,HEMATOCRIT,[2],35.65%
same,HEMOGLOBIN,[2],14.22 G/DL
same,LEUKOCYTE COUNT,[2],14.75 x10E3/uL
same,LYMPHOCYTE,[2],90.67%
same,MEAN CORPUSCULAR HEMOGLOBIN,[2],25.65 pg
same,MEAN CORPUSCULAR HEMOGLOBIN CONCENTRATION,[2],39.88 G/DL
same,MEAN CORPUSCULAR VOLUME,[2],64.35 fL
same,MONOCYTE,[2],1%
same,NEUTROPHIL,[2],7.83%
same,NUCLEATED RED BLOOD CELLS,[2],0.17 /100WBC
same,PLATELET COUNT,[2],1285.33 x10E3/uL
same,ALANINE AMINOTRANSFERASE,[2],51.67 u/L
same,ALBUMIN,[2],4.08 G/DL
same,ALKALINE PHOSPHATASE,[2],391.5 u/L
same,ASPARTATE AMINOTRANSFERASE,[2],99.5 u/L
same,BLOOD UREA NITROGEN,[2],15.5 mg/dL
same,CARBON DIOXIDE,[2],28.33 mmol/L
same,CHLORIDE,[2],101.83 MEQ/L
same,CHOLESTEROL,[2],67.83 mg/dL
same,CREATINE PHOSPHOKINASE,[2],771.33 u/L
same,CREATININE,[2],0.23 mg/dL
same,GLUCOSE,[2],156.5 mg/dL
same,LACTATE DEHYDROGENASE,[2],544.33 u/L
same,LIPASE,[2],10.17 u/L
same,PHOSPHORUS,[2],12.03 mg/dL
same,POTASSIUM,[2],6.81 MEQ/L
same,SODIUM,[2],144.13 MEQ/L
same,TOTAL BILIRUBIN,[2],0.22 mg/dL
same,TOTAL PROTEIN,[2],6 G/DL
same,URIC ACID,[2],2.18 mg/dL
same,ABSOLUTE BASOPHIL,[3],0 CELLS/uL
same,ABSOLUTE EOSINOPHIL,[3],118.67 CELLS/uL
same,ABSOLUTE LYMPHOCYTE,[3],13131.33 CELLS/uL
same,ABSOLUTE MONOCYTE,[3],410.33 CELLS/uL
same,ABSOLUTE SEGMENTED NEUTROPHIL,[3],1606.33 CELLS/uL
same,BASOPHIL,[3],0%
same,EOSINOPHIL,[3],0.67%
same,ERYTHROCYTE COUNT,[3],5.09 x10E6/uL
same,HEMATOCRIT,[3],32.87%
same,HEMOGLOBIN,[3],13.13 G/DL
same,LEUKOCYTE COUNT,[3],15.27 x10E3/uL
same,LYMPHOCYTE,[3],86%
same,MEAN CORPUSCULAR HEMOGLOBIN,[3],25.8 pg
same,MEAN CORPUSCULAR HEMOGLOBIN CONCENTRATION,[3],39.97 G/DL
same,MEAN CORPUSCULAR VOLUME,[3],64.6 fL
same,MONOCYTE,[3],2.67%
same,NEUTROPHIL,[3],10.67%
same,NUCLEATED RED BLOOD CELLS,[3],0 /100WBC
same,PLATELET COUNT,[3],1167 x10E3/uL
same,ALANINE AMINOTRANSFERASE,[3],51 u/L
same,ALBUMIN,[3],4 G/DL
same,ALKALINE PHOSPHATASE,[3],346.33 u/L
same,ASPARTATE AMINOTRANSFERASE,[3],113.33 u/L
same,BLOOD UREA NITROGEN,[3],12 mg/dL
same,CARBON DIOXIDE,[3],23.33 mmol/L
same,CHLORIDE,[3],103.33 MEQ/L
same,CHOLESTEROL,[3],74.67 mg/dL
same,CREATINE PHOSPHOKINASE,[3],1459.33 u/L
same,CREATININE,[3],0.2 mg/dL
same,GLUCOSE,[3],170 mg/dL
same,LACTATE DEHYDROGENASE,[3],168.33 u/L
same,LIPASE,[3],11 u/L
same,PHOSPHORUS,[3],12.67 mg/dL
same,POTASSIUM,[3],5.75 MEQ/L
same,SODIUM,[3],144.4 MEQ/L
same,TOTAL BILIRUBIN,[3],0.2 mg/dL
same,TOTAL PROTEIN,[3],5.8 G/DL
same,URIC ACID,[3],1.1 mg/dL
